pIC50: −log10 of the molar value. Read-outs that look alike come from different tables or passages of the source.
Columns and labels:
[1] = system: zymosan-induced peritonitis; assay: Zymosan-induced peritonitis mouse model; assay type: in vivo; details: for myeloperoxidase activity / myeloperoxidase activity, % of vehicle control / leukocyte recruitment: 4 h after zymosan; for vascular permeability, % of vehicle control: 30 min after zymosan
Procedure: The animal studies are reported in accordance with the ARRIVE guidelines for reporting animal research. Male CD-1 mice (33–39 g, 8–9 weeks, Charles River Laboratories, Calco, Italy) were housed in a controlled environment (21 ± 2 °C) and provided with standard rodent chow and water ad libitum. Mice received a standard diet containing 5.7% fat, 18.9% protein and 57.3% carbohydrate (Global Diet 2018, ENVIGO, Italy). The fatty acid composition was according to Matias et al.[67].
Prior to experiments, all mice were allowed to acclimate for 5 days and kept at 12 h light–dark schedule, in which experiments were performed during the light phase. Animal care was in compliance with Italian regulations on protection of animals used for experimental and other scientific purpose (Ministerial Decree 116/92) and with the European Economic Community regulations (Official Journal of E.C. L 358/1 12/18/1986). Animal studies were approved by the local ethical committee of the University of Naples Federico II on 27 February 2014 (approval number 2014/18760). […] Zymosan (Sigma, Milan, Italy) was prepared and injected i.p. as a final suspension (2 mg/mL) in 0.9% saline solution after boiling, centrifugation and sonication. Peritoneal lavage (3 mL of cold PBS) was performed after CO2-euthanasia at indicated time points, followed by 60 sec of gentle manual massage. Two mL of exudates were collected and infiltrated cells were determined using a Burker chamber and vital trypan blue staining. Pelleted samples (18,000 × g, 5 min, 4 °C) were frozen (−80 °C) and assayed for myeloperoxidase (MPO) activity (pellet) or LTC4 and LTB4 formation (supernatant), respectively.
MPO of neutrophils was examined as follows: pellets from exudates were resuspended in PBS (50 mM, pH 6) containing 0.5% hexadecyltrimethyl-ammonium bromide and sonicated, followed by 3 freeze-thawing cycles and a final sonication. Supernatants of centrifuged samples (18,000 × g, 30 min) were added to a 96-well plate and reactions were initiated by addition of PBS (50 mM, pH 6) containing o-dianisidine (0.167 mg/mL) and hydrogen peroxide (0.0005%). Absorbance was monitored in the kinetic mode (Biorad Imark microplate) and levels of MPO were determined using a calibration curve with human neutrophils as reference standard. MPO levels were expressed as units MPO per mouse. LTC4 and LTB4 formation within the supernatants were determined by EIA (Enzo Life Sciences International Inc., Lörrach, Germany) according to manufacturer’s protocol.
Vascular permeability was assessed according to a previous report. Briefly, 0.3 mL of 0.9% saline solution supplemented with Evans blue dye (40 mg/kg) was injected intravenously (i.v.) into the caudal vein followed by immediate peritonitis induction (using zymosan). After 30 min, peritoneal lavage exudates of CO2-euthanized were collected as described above. Absorbance of the centrifuged supernatants (3,000 × g, 5 min) was measured at 650 nm (Beckman Coulter DU730).

[2] = system: 5-LOX product formation (FLAP) in human monocytes; assay: 5-LOX product formation in intact human monocytes stimulated with Ca2+-ionophore A23187; assay type: cell-based; details: Monocyte, 5 h, read-out: IC50, formation of LTB4 and its isomers and of 5-H(p)ETE (5-LOX product formation)
Procedure: Peripheral blood (University Hospital Jena, Germany) was collected from fasted healthy adult donors that were informed about the aim of the study and gave written consent. The protocols for experiments with neutrophils or monocytes were approved by the ethical commission of the Friedrich-Schiller-University Jena (approval number 4292-12/14). All methods were performed in accordance with the relevant guidelines and regulations. Leukocyte concentrates were obtained by centrifugation (4000 × g, 20 min, 20 °C) of heparinized blood preparations. Neutrophils and monocytes were immediately isolated as described before. In brief, leukocyte concentrates were subjected to dextran sedimentation and centrifuged on lymphocyte separation medium (LSM 1077, PAA, Coelbe, Germany). For isolation of pelleted neutrophils, remaining erythrocytes were removed by hypotonic lysis, washed twice with ice-cold PBS and resuspended in medium to a cell density described for the respective experiments. […]
Human recombinant 5-LOX was expressed in E.coli BL21 transformed with pT3-5-LOX plasmid at 30 °C overnight as described before. […] After elution with methanol, samples were analyzed by RP-HPLC using a C-18 Radial-PAK column (Waters, Eschborn, Germany). […]

LTC4S = molecular target: T1, LTC4S (Homo sapiens, UniProt Q16873); assay: LTC4S activity in microsomes of LTC4S-expressing HEK293 cells; assay type: biochemical; details: cell-free, up to 10 µM
T1 construct: expressed in transfected cells; host or cells: HEK293 stably expressing LTC4S (geneticin selection), microsomal fraction
T1 sequence (Q16873 1-150): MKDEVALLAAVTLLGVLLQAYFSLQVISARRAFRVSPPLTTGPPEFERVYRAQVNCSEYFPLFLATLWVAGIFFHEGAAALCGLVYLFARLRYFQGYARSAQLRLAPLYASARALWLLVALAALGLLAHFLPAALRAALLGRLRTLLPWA
Procedure: LTC4S activity was assayed by using microsomes of HEK293 cells stably expressing LTC4S, as previously published. In brief, HEK293 expressing LTC4S were cultivated as described above and selected using geneticin (400 µg/mL). Isolation of microsomes was performed as described for mPGES-1 above and microsomes were diluted in potassium phosphate buffer (0.1 M, pH 7.4) with glutathione (5 mM) to a final concentration of 2.5 µg protein per mL. […] To determine enzyme activity, acidified PBS and d5-LTC4-methyl ester (5 ng) as internal standard were added prior solid phase extraction and LTC4-methyl ester formation was analyzed by UPLC-MS/MS as described.

[3] = mice, 1 mg/kg i.p. 30 min before zymosan

Row | pIC50 ([2]; intact human monocytes, Ca2+-ionophore A23187, no AA supplementation) | Structure (SMILES) | LTB4 peritoneal levels [1, 3] | LTC4 peritoneal levels [1, 3] | myeloperoxidase activity ([1]; mice, 1 mg/kg i.p.) | myeloperoxidase activity, % of vehicle control ([1]; mice, 1 mg/kg i.p.) | vascular permeability, % of vehicle control ([1]; mice, 3 mg/kg i.p.) | leukocyte recruitment ([1]; mice, MK886 i.p.) | vascular permeability, % of vehicle control ([1]; mice, 10 mg/kg i.p.) | myeloperoxidase activity ([1]; mice, 10 mg/kg i.p.) | myeloperoxidase activity, % of vehicle control ([1]; mice, 10 mg/kg i.p.) | LTC4 peritoneal levels ([1]; mice, 1, 3 and 10 mg/kg i.p. 30 min before zymosan, analysed 30 min after zymosan) | LTB4 peritoneal levels ([1]; mice, 1, 3 and 10 mg/kg i.p. 30 min before zymosan, analysed 4 h after zymosan) | leukocyte recruitment ([1]; mice, 1, 3 and 10 mg/kg i.p., dose-dependent) | pIC50 ([2]; Homo sapiens) | inhibition of LTC4S activity (LTC4S)
1 | ~8.52 | CC(C)c1ccc2c(c1)c(SC(C)(C)C)c(CC(C)(C)C(=O)O)n2Cc1ccc(Cl)cc1 [MK886, 3-[1-(4-chlorobenzyl)-3-t-butyl-thio-5-isopropylindol-2-yl]-2,2 - dimethylpropanoic acid] | comparable to the effect of MK886 | comparable to the effect of MK886 | 0.72 ± 0.13 U/mL | 58.5 ± 10.6 % of vehicle control | 48.6 ± 3.2 % of vehicle control | block of leukocyte recruitment |  |  |  |  |  |  |  | 
2 |  | Cc1cc(OCc2nc3ccccc3s2)ccc1NC(=O)Nc1ccc(Cl)c(Cl)c1 [diflapolin, N-[4-(benzothiazol-2-ylmethoxy)-2-methylphenyl]-N′-(3,4-dichlorophenyl)urea] |  |  |  |  |  |  | 55.7 ± 14.4 % of vehicle control | 0.65 ± 0.15 U/mL | 52.8 ± 12.2 % of vehicle control | significant reduction | significant reduction | block of leukocyte recruitment | 7.52 | failed to inhibit

Source: publication PMC5571211 (Scientific Reports, 2017)
